Source: patent publication US11059795B2, “Androgen receptor modulators and methods for their use” (ESSA Pharma, Inc., priority 2018, dated 2021)

Tests used:
[1] = target: T1, androgen receptor (AR) (Homo sapiens, UniProt P10275, T878A); assay: Androgen-induced PSA (6.1 kb)-luciferase reporter assay in LNCaP cells; type: cell-based; details: LNCaP cells transfected with PSA (6.1 kb)-luciferase reporter, R1881 1 nM, 24 h; read-out: PSA-Luc IC50 Range
T1 construct: LNCaP cells were transiently transfected with the PSA (6.1 kb)-luciferase reporter for 24 h; endogenous in cells; host or cells: LNCaP
T1 sequence (P10275 1-920 T878A): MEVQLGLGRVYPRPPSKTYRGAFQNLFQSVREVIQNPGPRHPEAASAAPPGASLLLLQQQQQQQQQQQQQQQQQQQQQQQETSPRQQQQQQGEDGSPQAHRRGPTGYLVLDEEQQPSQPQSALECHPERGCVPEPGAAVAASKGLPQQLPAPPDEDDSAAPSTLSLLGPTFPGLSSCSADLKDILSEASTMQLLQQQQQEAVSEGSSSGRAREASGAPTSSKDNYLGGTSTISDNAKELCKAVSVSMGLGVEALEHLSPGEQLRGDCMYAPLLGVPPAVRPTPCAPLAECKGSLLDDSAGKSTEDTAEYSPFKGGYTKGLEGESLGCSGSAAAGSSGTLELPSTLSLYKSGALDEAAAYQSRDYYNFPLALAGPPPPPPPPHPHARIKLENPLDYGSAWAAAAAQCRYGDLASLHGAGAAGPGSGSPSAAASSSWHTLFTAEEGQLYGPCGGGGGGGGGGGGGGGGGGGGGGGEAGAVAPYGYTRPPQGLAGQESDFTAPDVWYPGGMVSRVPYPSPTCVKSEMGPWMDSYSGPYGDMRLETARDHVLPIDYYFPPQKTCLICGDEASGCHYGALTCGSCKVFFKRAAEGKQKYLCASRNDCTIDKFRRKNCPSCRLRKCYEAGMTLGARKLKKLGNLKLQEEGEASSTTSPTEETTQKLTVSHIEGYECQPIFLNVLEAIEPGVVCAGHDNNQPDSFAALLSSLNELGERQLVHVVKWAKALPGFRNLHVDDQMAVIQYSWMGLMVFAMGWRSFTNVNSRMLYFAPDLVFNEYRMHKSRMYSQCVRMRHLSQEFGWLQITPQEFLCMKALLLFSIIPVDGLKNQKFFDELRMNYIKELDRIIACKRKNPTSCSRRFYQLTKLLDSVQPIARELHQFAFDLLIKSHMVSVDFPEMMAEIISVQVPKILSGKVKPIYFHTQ
In short: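 Read-out is firefly luminescence (10 s) in LNCaP lysates, normalized to protein, from an ARE-containing PSA (6.1 kb)-luciferase reporter driven by androgen.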

[2] = Microsomal stability assay, mouse liver microsomes; type: in vitro ADME; details: mouse, liver microsomes, pH 7.4, mouse liver microsomes, 1 μM compound, 0.5 mg/mL protein, 37° C.; read-out: MLM +30/− NADPH: Clint (μL/min/mg protein)
In short: (§1)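 Compound at 1 μM was incubated at 37° C with 0.5 mg/mL liver microsomes and 1 mM NADPH and/or 1 mM UDPGA (with alamethicin) in 100 mM potassium phosphate pH 7.4, 3 mM MgCl2. Samples were taken at 0, 15, 30 and 60 min and measured by LC/MS/MS. t½ came from compound loss relative to 0 min, and Clint was scaled with 45 mg microsomal protein/g liver.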

[3] = Microsomal stability assay, human liver microsomes; type: in vitro ADME; details: pH 7.4, 1 μM compound, 0.5 mg/mL protein, 37° C., read-out: HLM +/− NADPH: Clint (μL/min/mg protein)
In short: as §1

[4] = Hepatocyte stability assay, mouse hepatocytes; type: in vitro ADME; details: mouse, cryopreserved hepatocytes, 1 μM compound, 0.5 million cells/mL, 37° C., read-out: MH +/− NADPH: Clint (μL/min/million cells)
In short: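 Cryopreserved rat, human or mouse hepatocytes at 0.5 million cells/mL in DMEM with 1 μM compound, 37° C, sampled at 0, 60, 120 and 180 min and quenched with acetonitrile/formic acid. Parent loss vs 0-min by LC/MS/MS gave t½, and Clint = 0.693/t½ × mL incubation/million cells.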

Row | SMILES | IC50 [1] [nM] | microsomal CLint at 1 μM [2] [µL/min/mg] | microsomal CLint at 1 μM [3] [µL/min/mg] | hepatocyte CLint at 1 μM [4] [µL/min/1e6 cells]
1 | CC(C)(c1ccc(OCc2nc(C(N)=O)cs2)cc1)c1cc(Cl)c(OCCCl)c(C#N)c1 [Compound A171, 2-((4-(2-(3-chloro-4-(2-chloroethoxy)-5-cyanophenyl)propan-2-yl)phenoxy)methyl)thiazole-4-carboxamide] | 500 to 2000 | < 12 | < 12 | 4 to 18
2 | CC(C)(c1ccc(OCc2nc(C#N)cs2)cc1)c1cc(Cl)c(OCCCl)c(C#N)c1 [Compound A172, 2-((4-(2-(3-chloro-4-(2-chloroethoxy)-5-cyanophenyl)propan-2-yl)phenoxy)methyl)thiazole-4-carbonitrile] | < 500 | < 12 | < 12 | < 4
3 | CC(C)(c1ccc(OCc2cncc(NS(C)(=O)=O)n2)cc1)c1cc(Cl)c(OCCCl)c(C#N)c1 [Compound A185, N-(6-((4-(2-(3-chloro-4-(2-chloroethoxy)-5-cyanophenyl)propan-2-yl)phenoxy)methyl)pyrazin-2-yl)methanesulfonamide] | < 500 | 12 to 48 | < 12 | 4 to 18
4 | CC(C)(c1ccc(OCc2nc(NS(C)(=O)=O)nc3c2CCOC3)cc1)c1cc(Cl)c(OCCCl)c(C#N)c1 [Compound A190] | 500 to 2000 | ≥ 48 | < 12 | ≥ 18
5 | CC(C)(c1ccc(OCc2cnc(NS(C)(=O)=O)cn2)cc1)c1cc(Cl)c(OCCCl)c(C#N)c1 [Compound A197] | 500 to 2000 | < 12 | < 12 | < 4
6 | CC(C)(c1ccc(OCc2ccnc(N3CCCCS3(=O)=O)n2)cc1)c1cc(Cl)c(OCCCl)c(C#N)c1 [Compound A198] | < 500 | 12 to 48 | < 12 | 4 to 18
7 | CC(C)(c1ccc(OCc2ccnc(N3CCCS3(=O)=O)n2)cc1)c1cc(Cl)c(OCCCl)c(C#N)c1 [Compound A199] | < 500 | ≥ 48 | < 12 | 4 to 18
8 | CC(C)(c1ccc(OCc2ccnc(C#N)n2)cc1)c1cc(Cl)c(OCCCl)c(C#N)c1 [Compound A200] | 500 to 2000 | < 12 | < 12 | 4 to 18
9 | [2H]c1c([2H])c(C(C)(C)c2cc(Cl)c(OCCCl)c(C#N)c2)c([2H])c([2H])c1OCc1ccnc(NS(C)(=O)=O)n1 [Compound A201] | 500 to 2000 | < 12 | < 12 | < 4
10 | CC(C)(c1ccc(OCc2nc(NS(C)(=O)=O)nc3c2CCC3)cc1)c1cc(Cl)c(OCCCl)c(C#N)c1 [Compound A202] | 500 to 2000 | ≥ 48 | < 12 | ≥ 18
11 | CC(=O)NN1C(=O)N(c2ccc(C(C)(C)c3cc(Cl)c(OCCCl)c(Cl)c3)cc2)C(=O)C1(C)C [Compound B5] | 500 to 2000 | < 12 | < 12 | 4 to 18

Second part, the molecule after the results:

Row | IC50 [1] [nM] | microsomal CLint at 1 μM [2] [µL/min/mg] | microsomal CLint at 1 μM [3] [µL/min/mg] | hepatocyte CLint at 1 μM [4] [µL/min/1e6 cells] | SMILES
12 | < 500 | < 12 | < 12 | 4 to 18 | CC(C)(c1ccc(OCc2ccc(S(C)(=O)=O)o2)cc1)c1cc(Cl)c(OCCCl)c(C#N)c1 [Compound A168, 3-chloro-2-(2-chloroethoxy)-5-(2-(4-((5-(methylsulfonyl)furan-2-yl)methoxy)phenyl)propan-2-yl)benzonitrile]
13 | > 2000 | < 12 | < 12 | < 4 | CC(C)(c1ccc(OCc2nccc(NS(C)(=O)=O)n2)cc1)c1cc(Cl)c(OCCCl)c(C#N)c1 [Compound A184, N-(2-((4-(2-(3-chloro-4-(2-chloroethoxy)-5-cyanophenyl)propan-2-yl)phenoxy)methyl)pyrimidin-4-yl)methanesulfonamide]
14 | < 500 | 12 to 48 | 12 to 48 | ≥ 18 | CC(C)(c1ccc(OCc2cnc(CN)o2)cc1)c1cc(Cl)c(OCCCl)c(C#N)c1 [Compound A192]
15 | 500 to 2000 | ≥ 48 | ≥ 48 | 4 to 18 | Cn1c(COc2ccc(C(C)(C)c3cc(Cl)c(OCCCl)c(C#N)c3)cc2)ccc1S(C)(=O)=O [Compound A193]
16 | 500 to 2000 | < 12 | < 12 | < 4 | CC(C)(c1ccc(OCc2cccc(NS(C)(=O)=O)n2)cc1)c1cc(Cl)c(OCCCl)c(C#N)c1 [Compound A194]
17 | < 500 | < 12 | < 12 | 4 to 18 | CC(C)(c1ccc(OCc2ccnc(NS(C)(=O)=O)c2)cc1)c1cc(Cl)c(OCCCl)c(C#N)c1 [Compound A195]
18 | 500 to 2000 | < 12 | 12 to 48 | < 4 | CC(C)(c1ccc(OCc2cc(NS(C)(=O)=O)ccn2)cc1)c1cc(Cl)c(OCCCl)c(C#N)c1 [Compound A196]
19 | < 500 | < 12 | < 12 | < 4 | CC(C)(c1ccc(OCc2cnc(NS(C)(=O)=O)nc2)cc1)c1cc(Cl)c(OCCCl)c(C#N)c1 [Compound A204]
20 | < 500 | < 12 | < 12 | < 4 | CC(C)(c1ccc(OCc2coc(S(N)(=O)=O)c2)cc1)c1cc(Cl)c(OCCCl)c(C#N)c1 [Compound A207]
21 | < 500 | < 12 | < 12 | < 4 | CC(C)(c1ccc(OCc2coc(S(C)(=O)=O)c2)cc1)c1cc(Cl)c(OCCCl)c(C#N)c1 [Compound A208]
